Measured values reported in patent US8461182B2, “7-piperidinoalkyl-3, 4-Dihydroquinolone derivative” (Taisho Pharmaceutical Co., Ltd., priority 2008, dated 2013).
Structures can show the parent of a compound that is named as a salt.

Experiments:
MCH1R [1] = target: T1, MCH1R (Homo sapiens, UniProt Q99705); test: Calcium Evaluation Test for MCH1R (FDSS assay, MCH-induced intracellular calcium increase); format: cell-based; conditions: cells stably expressing non-endogenous active MCH1R; 50 nM MCH; Fluo-4 calcium, FDSS6000
T1 construct: IC50; other: cells stably expressing non-endogenous active MCH1R; 50 nM MCH; Fluo-4 calcium, FDSS6000
Description: Calcium Evaluation Test for MCH1R
An FDSS assay can measure the intracellular calcium concentration and can evaluate the Gq-coupled receptor activity using the calcium concentration as an index. For example, the assay can determine whether an analyte is an antagonist, an inverse agonist or an agonist for a Gq-coupled receptor. The FDSS6000™ system (Hamamatsu Photonics K.K.) is designed to perform evaluation based on functionality such as measurement of intracellular calcium for high-throughput screening. Intracellular calcium release by activation of a Gq-coupled receptor can be fluorometrically measured by incorporating a calcium indicator (such as Fluo4) into cells. On the other hand, the assay cannot measure the activation of Gi- and Go-coupled receptors, because the activation is not associated with calcium signaling pathways.
Intracellular fluorescence can be rapidly and successively measured in a 96-well microplate or a 384-well microplate using a fluorometric imaging plate reader system. FDSS6000™ can simultaneously measure fluorescence in all wells sensitively, accurately and by seconds. This system is ideal for functional analysis in cells such as monitoring of an intracellular calcium flow generated within several seconds after activation of a Gq-coupled receptor.
On the day before the test, cells stably expressing non-endogenous active MCH1R were seeded into a 96-well microplate at 3×10^4 cells per well. 100 μL per well of a medium (Dulbecco's modified Eagle medium containing 10% fetal bovine serum, 2 mM glutamine, 1 mM sodium pyruvate and 0.5 mg/mL G418, pH=7.4) was used for culture. On the day of the test, the medium was removed and an assay buffer {Hank's balanced salt solution containing 20 mM HEPES, 0.5 mM probenecid, 0.05 mg/mL amaranth and 0.2% bovine serum albumin (BSA), pH=7.4} containing 2 μM Fluo-4-AM and 0.04% Pluronic F127 was added at 100 μL per well, followed by incubation in a 5% CO2 incubator at 37° C. for 30 minutes. An assay buffer containing each concentration of MCH was added at 50 μL per well, and transient changes in the intracellular calcium concentration induced by MCH were monitored using FDSS6000™ at Ex. 488 nm and Em. 530 nm for 180 seconds. In testing the antagonistic activity of the analyte, MCH was added to a final concentration of 50 nM. An inhibition curve was prepared with various concentrations of the analyte, and the concentration of the analyte inhibiting 50% of the increase in intracellular calcium when 50 nM MCH was added (IC50 value) was calculated using data analysis software Origin Ver. 6.

MCH1R [2] = conditions: NON-PATENT DOCUMENT 2; cited from earlier work

| SMILES | IC50 (MCH1R [1]) [nM] | effects in experimental animal models (MCH1R [2]) |
| --- | --- | --- |
| CC(c1ccc2c(c1)NC(=O)CC2)N1CCC(NC(=O)c2ccc(F)c(Cl)c2)CC1 (stereo not drawn) [Example 51, 3-chloro-4-fluoro-N-{1-[1-(2-oxo-1,2,3,4-tetrahydroquinolin-7-yl)ethyl]piperidin-4-yl}benzamide] | 1.07 |  |
| O=C1CCc2ccc(CN3CCC(NC(=O)c4cncc(Cl)c4)CC3)cc2N1 [Example 38, 5-chloro-N-{1-[(2-oxo-1,2,3,4-tetrahydroquinolin-7-yl)methyl]piperidin-4-yl}pyridine-3-carboxamide] | 18.8 |  |
| CC(=O)c1cccc(C(=O)NC2CCN(Cc3ccc4c(c3)NC(=O)CC4)CC2)c1 [Example 32, 3-acetyl-N-{1-[(2-oxo-1,2,3,4-tetrahydroquinolin-7-yl)methyl]piperidin-4-yl}benzamide] | 10.7 |  |
| N#Cc1cccc(C(=O)NC2CCN(Cc3ccc4c(c3)NC(=O)CC4)CC2)c1 [Example 37, 3-cyano-N-{1-[(2-oxo-1,2,3,4-tetrahydroquinolin-7-yl)methyl]piperidin-4-yl}benzamide] | 18.3 |  |
| COc1cc(OC)cc(C(=O)NC2CCN(Cc3ccc4c(c3)NC(=O)CC4)CC2)c1 [Example 19, 3,5-dimethoxy-N-{1-[(2-oxo-1,2,3,4-tetrahydroquinolin-7-yl)methyl]piperidin-4-yl}benzamide] | 3.85 |  |
| COc1cccc(C(=O)NC2CCN(Cc3ccc4c(c3)NC(=O)CC4)CC2)c1 [Example 2, 3-methoxy-N-{1-[(2-oxo-1,2,3,4-tetrahydroquinolin-7-yl)methyl]piperidin-4-yl}benzamide monohydrochloride, monohydrate] | 6.22 |  |
| O=C1CCc2ccc(CN3CCC(NC(=O)C(c4ccccc4)c4ccccc4)CC3)cc2N1 [Example 27, N-{1-[(2-oxo-1,2,3,4-tetrahydroquinolin-7-yl)methyl]piperidin-4-yl}-2,2-diphenylacetamide] | 19.7 |  |
| Cc1cccc(C(=O)NC2CCN(Cc3ccc4c(c3)NC(=O)CC4)CC2)c1 [Example 8, 3-methyl-N-{1-[(2-oxo-1,2,3,4-tetrahydroquinolin-7-yl)methyl]piperidin-4-yl}benzamide] | 19.2 |  |
| O=C1CCc2ccc(CN3CCC(NC(=O)c4cccc(F)c4)CC3)cc2N1 [Example 3, 3-fluoro-N-{1-[(2-oxo-1,2,3,4-tetrahydroquinolin-7-yl)methyl]piperidin-4-yl}benzamide] | 10.9 |  |
| O=C1CCc2ccc(CN3CCC(NC(=O)COc4ccc(F)c(Cl)c4)CC3)cc2N1 [Example 46, 2-(3-chloro-4-fluorophenoxy)-N-{1-[(2-oxo-1,2,3,4-tetrahydroquinolin-7-yl)methyl]piperidin-4-yl}acetamide] | 4.34 |  |
| O=C1CCc2ccc(CN3CCC(NC(=O)c4cc(F)c(F)c(F)c4)CC3)cc2N1 [Example 33, 3,4,5-trifluoro-N-{1-[(2-oxo-1,2,3,4-tetrahydroquinolin-7-yl)methyl]piperidin-4-yl}benzamide] | 1.96 |  |
| COc1cccc(C(=O)NC2CCN(Cc3cc4c(cc3F)CCC(=O)N4)CC2)c1 [Example 53, N-{1-[(6-fluoro-2-oxo-1,2,3,4-tetrahydroquinolin-7-yl)methyl]piperidin-4-yl}-3-methoxybenzamide] | 39.3 |  |
| O=C1CCc2ccc(CN3CCC(NC(=O)c4ccc(F)c(F)c4)CC3)cc2N1 [Example 5, 3,4-difluoro-N-{1-[(2-oxo-1,2,3,4-tetrahydroquinolin-7-yl)methyl]piperidin-4-yl}benzamide] | 1.5 |  |
| CN(C)c1nc(N[C@H]2CC[C@@H](NC(=O)c3ccc(F)c(F)c3)CC2)nc2ccccc12 [ATC0175] |  | antidepressive-like and anxiolytic-like effects |
| O=C1CCc2ccc(CN3CCC(NC(=O)c4cccc(Cl)c4)CC3)cc2N1 [Example 7, 3-chloro-N-{1-[(2-oxo-1,2,3,4-tetrahydroquinolin-7-yl)methyl]piperidin-4-yl}benzamide] | 9.08 |  |
